Patent US6610501B2, “Porcine protein and uses thereof” (New York Blood Center, Inc., priority 1999, dated 2003)

Experiments:
Type in all cases: cell-based, porcine
pRBCs [1] = assay: Flow cytometry analysis of binding of human xenoreactive antibodies to pRBCs
Experimental: FIG. 7 represents the effect of the trisaccharide of FIG. 4 on the binding of fractions S1 and S2 to pRBCs. 40 μl of the trisaccharide (2 mg/ml) was added to 2 μl of S1 or S2 plus 38 μl of PBS (final concentration of trisaccharide 1 mg/ml), followed by incubation at 4° C. overnight. pRBCs were then added and flow cytometry analysis performed, using anti-human IgG (H+L) conjugated with phycoerythrin (PE) as the secondary antibody. Sample 1: negative control lacking the primary and secondary antibodies. Sample 2: negative control containing the secondary antibody only. Samples 3 and 4: fraction S1 without and with the trisaccharide of FIG. 4, respectively. Samples 5 and 6: fraction S2 without and with the trisaccharide of FIG. 4, respectively.
FIG. 8 represents the effect of concentration of the trisaccharide of FIG. 4 on the binding of S1 to pRBCs. Fraction S1 was incubated with various amounts of the trisaccharide under the same conditions described in […]. The binding of IgG (curve 1) and IgM (curve 2) molecules from fraction S1 was monitored by flow cytometry, using anti-human IgG and anti-human IgM, respectively. The data from the flow cytometry analyses were plotted as mean fluorescent intensity (MFI) versus the final concentration of trisaccharide, and the curves were generated by nonlinear curve fitting.
FIG. 9 represents the effect of the trisaccharide of FIG. 4 on the binding of anti-αGal and non-αGal antibodies to pRBCs. The control samples (1 and 2) were as described for FIG. 7. (A): anti-αGal antibody incubated in the absence (curve 3) or presence (curve 4) of the trisaccharide (1 mg/ml). (B): Non-αGal antibodies incubated in the absence (curve 3) or presence (curve 4) of the trisaccharide (1 mg/ml). […]
Various fractions derived from human serum were analyzed by flow cytometry. […]
To directly detect non-anti-αGal antibodies from the S2 fraction, we isolated these antibodies by using a pRBC absorption/elution method. The eluted fraction (non-αGal antibodies) was then measured for its binding to pRBCs in the presence or absence of the trisaccharide. […]

pRBCs [2] = conditions: 1 mg/ml trisaccharide, time course experiment at 37° C.; FIG. 5
Description: FIG. 3 represents the procedure for measuring human complement-mediated hemolysis. The procedure is outlined in panel B. Hemolysis (A) is plotted as percent lysis versus volume of human serum added (μl). Lysis is defined as (OD-ODo)/(OD100−ODo), where OD represents the amount of lysis, as measured by the absorbance at 541 nm, ODo is the absorbance at 541 nm that is due to spontaneous lysis in the absence of any additions, and OD100 is the absorbance at 541 nm that is due to 100% lysis of red cells under the experimental conditions. […]
The hemolysis was monitored up to 4 hr. […]
In blood transfusions between humans, mismatched red cells undergo intravascular destruction by the same mechanism as complement-induced hemolysis observed in vitro. […] Since this serum was derived from type B individuals, as determined by hemagglutination assays, we used only non-type A pRBCs in the complement assays to exclude the binding of anti-A antibody present in the serum.
The human serum (between 3-18 μl) was mixed with 40 μl of 5% pRBCs (about 2×10^7 cells) in a total volume of 210 μl. […] Hemoglobin molecules released from the lysed cells into the supernatant were quantitated by measuring the absorbance at 541 nm. […]
We also measured the time course for complement-mediated hemolysis of pRBCs (FIG. 5). […]

pRBCs [3] = assay: Effect of ssDNA and thyroglobulin on S1- or S2-induced hemagglutination of pRBCs; conditions: final concentration 1 mg/ml, 4° C. 3 hr
Description: To determine whether the xenoreactive antibodies that we characterized in the binding of pRBCs are polyreactive, we tested the effect of ssDNA and thyroglobulin on binding of antibodies by hemagglutination assays and flow cytometry analyses (Turman M A, Casali P, Notkins A L, Bach F H, and Platt J L (1991) Transplantation 52:710-717). To ensure that the xenoreactive antibodies were not present in excess, we titrated the amount of antibodies used in the hemagglutination assays and chose the dilution that produced an intermediate strength (2+ or 3+) for inhibition. Fraction S1 or S2 was pre-incubated with ssDNA or thyroglobulin (final concentration 1 mg/ml) at 4° C. for 3 hr before adding pRBCs for the hemagglutination assay.

Row | Compound | inhibition of anti-αGal antibody in normal human serum (pRBCs [1]; trisaccharide 1 mg/ml, flow cytometry) | inhibition of IgG versus IgM binding of S1 to pRBCs (pRBCs [1]; various trisaccharide concentrations, FIG. 8) | inhibition of cell lysis (pRBCs [2]) | effect on binding of xenoreactive antibodies to pRBCs (pRBCs [1]; pre-incubation at 0.01, 0.1 or 1.0 mg/ml, FIG. 11) | inhibitory effect on S1- or S2-induced hemagglutination (pRBCs [3])
1 | CC(=O)N[C@H]1C(O)O[C@H](CO)[C@@H](O[C@@H]2O[C@H](CO)[C@H](O)[C@H](O[C@H]3O[C@H](CO)[C@H](O)[C@H](O)[C@H]3O)[C@H]2O)[C@@H]1O (some centres unmarked) [trisaccharide, Galα1,3Galβ1,4GlcNAc] | completely inhibited | inhibit IgG binding more efficiently than IgM binding | approximately 50% |  | 
2 | thyroglobulin: thyroglobulin used to test polyreactivity of the antibodies |  |  |  | little affected, if any | neither ssDNA nor thyroglobulin showed any inhibitory effect
